Values of other authors, collected in US20160166510A1, “STABILIZED PROLONGED RELEASE PHARMACEUTICAL COMPOSITION COMPRISING ATYPICAL ANTIPSYCHOTIC” (INVENTIA HEALTHCARE PRIVATE LIMITED, priority 2010, published 2016).
Read-outs that look alike come from different tables or passages of the source.

Cc1nc2n(c(=O)c1CCN1CCC(c3noc4cc(F)ccc34)CC1)CCCC2O (stereo not drawn) [Paliperidone]
Solubility (in 0.1 N HCl): sparingly soluble | Solubility (in methylene chloride): sparingly soluble | Solubility (in water): practically insoluble
